Test results from patent publication US20260345582A1, “PRODRUG FOR ANTI-AGING RELATED DISEASES AND USE METHOD THEREOF” (Beijing SunCell Bio-Medical Co., Ltd., priority 2022, published 2026).

Assays:
[1] = tested on: mouse model of Bleomycin-induced pulmonary fibrosis; test: Masson staining of lungs (degree of fibrosis), Bleomycin-induced pulmonary fibrosis; assay type: in vivo, C57 mice; details: of 6 animals; A13 2 mg/kg, A13bGa1 5 mg/kg
Protocol: (§1) A. Modelling of a mouse model of Bleomycin-induced pulmonary fibrosis, and the schematic diagram of treatment. Mice were modelled with Bleomycin administered via tracheal instillation on day 0, and the treatment with intraperitoneal injection of the drug was started on day 4. The drug was administered for 3 consecutive days per week, followed by a 4-day withdrawal, for 4 weeks.
D. Representative results of HE and Masson staining of the pathological sections of lungs taken from different groups of mice after execution. Normal represents the saline tracheal instillation modelling control group; Vehicle represents the vehicle administration control group; A13bGa1 represents the prodrug treatment group; A13 represents the A1331852 treatment group. Scale bar: 500 μm.
All drugs were mixed in 85% physiological saline, 5% DMSO (Sigma, D8418) and 10% Solutol HS 15 (Sigma, 42966), and administered to mice by intraperitoneal (i.p.) injection. To treat the bleomycin-injured young mice, A13 (2 mg/kg), A13bGa1 (5 mg/kg), or an empty vehicle control was administered three consecutive days per week for four weeks. A1331852 (abbreviated as A13) was purchased from MCE.
Bleomycin-Induced Pulmonary Fibrosis
Bleomycin was purchased from Selleck. As previously reported (Bivas-Benita et al., Eur J Pharm Biopharm 61, 214-218 (2005)), a transtracheal injection of bleomycin (2 mg/kg) was performed to the young male C57 mice (8-10 weeks old) to induce lung fibrosis. Drug treatment was initiated four days after modelling, and the drug was administered three consecutive days per week for four consecutive weeks, after which the mice were executed for material collection.
Masson trichrome stain kit (Solarbio, G1340) was used to detect fibrosis in the lung tissue. The formalin-fixed, and paraffin-embedded lung sections were dewaxed with xylene, and then rehydrated with 100% alcohol, 95% alcohol and distilled water. The sections were then stained according to the manufacturer's instructions. Afterwards, the sections were rapidly dehydrated with 95% alcohol and 100% alcohol, cleaned with xylene and covered with the coverslips. Images were acquired using a bright-field optical microscope (10× eyepiece) (OLYMPUS, BX43), and the degree of fibrosis of the lung tissue was graded according to the intensity of staining (weakly positive, moderately positive, moderately strong positive, and very strong positive).

[2] = tested on: mouse model of Bleomycin-induced pulmonary fibrosis; test: lung specific gravity index in Bleomycin-induced pulmonary fibrosis; assay type: in vivo, C57 mice; details: i.p. four weeks; A13 2 mg/kg, A13bGa1 5 mg/kg; FIG. 5C
Protocol: as §1
C. Comparison of lung specific gravity index calculated for different groups of mice. After completion of drug administration according to the dosing protocol, the mice were executed and the lungs of the mice were taken and weighed to calculate the lung specific gravity index, lung index=the lung weight (g)/the body weight (g)×100%. A13 represents the A1331852 treatment group at a dose of 2 mg/kg; A13bGa1 represents prodrug treatment group at a dose of 5 mg/kg; VEH represents the vehicle treatment control group; and NC represents the saline tracheal instillation modelling control group. Each dot in the panel represents the result of the lung specific gravity index of 1 mouse, n=5 in the saline modelling control group, and n=6 in other groups. The statistical analysis was performed using unpaired T-test, ns indicates no statistical difference; with *p<0.05; and **p<0.01. […]

[3] = tested on: BJ cells (human skin fibroblast cell line); test: in vitro killing of induced senescent BJ cells (CCK-8); assay type: cell-based; details: human skin-derived fibroblasts, FIG. 3D
Source text: (§2) Induction of the Cellular Senescence

[4] = plasma metabolic stability, canine; assay type: in vitro ADME; details: dog, 120 min
Protocol: (§3) Plasma Metabolic Stability
(§4) Termination of the reaction was accomplished by the addition of 3× volume of acetonitrile and centrifugation at 16000 g for 20 minutes. The supernatant was taken for a LC-MS/MS analysis. The chromatographic column: Waters XSelect HSS T3; the flow rate: 500 μL/min; the eluent: A, water (0.1% formic acid); B, acetonitrile (0.1% formic acid); the gradient elution: 0-1.5 min, 5% B, 1.5-9 min, 5%-80% B, 9-12 min, 80%-100% B, 12-14 min, 100% B, 14-14.3 min, 100%-5% B, 14.3-15 min, 5% B.

[5] = plasma metabolic stability, monkey; assay type: in vitro ADME; details: 120 min
Protocol: as §3, §4

[6] = plasma metabolic stability, rat; assay type: in vitro ADME; details: 120 min
Protocol: as §3, §4

[7] = tested on: HUVEC cells (human umbilical vein endothelial cell line); test: in vitro killing of induced senescent HUVEC cells (CCK-8); assay type: cell-based; details: vascular endothelial-derived, FIG. 3F
Source text: as §2

[8] = 10 μM prodrug, read-out: The peak area after normalisation at minute 120, oxidative dehydrogenation metabolite
[9] = 10 μM, read-out: The peak area after normalisation at minute 120, initial drug

Cc1c(-c2ccc(N3CCc4cccc(C(=O)Nc5nc6ccccc6s5)c4C3)nc2C(=O)O)cnn1CC12CC3CC(CC(C3)C1)C2 [Compound A13, 3-[1-(adamantan-1-ylmethyl)-5-methylpyrazol-4-yl]-6-{8-[(1,3-benzothiazol-2-yl)carbamoyl]-3,4-dihydro-1H-isoquinolin-2-yl}pyridine-2-carboxylic acid]
degree of fibrosis, Masson staining: Moderately strong positive (+++) [1]: 1 number of animals | degree of fibrosis, Masson staining: extremely strong positive (++++) [1]: 2 number of animals | degree of fibrosis, Masson staining: moderately positive (++) [1]: 1 number of animals | degree of fibrosis, Masson staining: not positive (−) [1]: 0 number of animals | degree of fibrosis, Masson staining: weakly positive (+) [1]: 2 number of animals | lung specific gravity index (lung weight/body weight×100%) [2]: no improvement in the lung index

Cc1c(-c2ccc(N3CCc4cccc(C(=O)Nc5nc6ccccc6s5)c4C3)nc2C(=O)OCc2ccc(O[C@@H]3O[C@H](CO)[C@H](O)[C@H](O)[C@H]3O)c([N+](=O)[O-])c2)cnn1CC12CC3CC(CC(C3)C1)C2 [Compound A13bGa1]
degree of fibrosis, Masson staining: Moderately strong positive (+++) [1]: 0 number of animals | degree of fibrosis, Masson staining: extremely strong positive (++++) [1]: 0 number of animals | degree of fibrosis, Masson staining: moderately positive (++) [1]: 1 number of animals | degree of fibrosis, Masson staining: not positive (−) [1]: 3 number of animals | degree of fibrosis, Masson staining: weakly positive (+) [1]: 2 number of animals | killing of the senescent cells, efficiency and selectivity [3]: highly efficient and selective in killing the senescent cells | metabolised at 2 h, 10 µM [4, 8]: 0.48% | remaining at 2 h, 10 µM [4, 9]: 99.5% | metabolised at 2 h, 10 µM [5, 8]: 0.04% | remaining at 2 h, 10 µM [5, 9]: 100% | lung specific gravity index (lung weight/body weight×100%) [2]: recovered to the normal level | metabolised at 2 h, 10 µM [6, 8]: 0.13% | remaining at 2 h, 10 µM [6, 9]: 99.9% | killing of the senescent cells, efficiency and selectivity [7]: highly efficient and selective in killing the senescent cells
